# In patent US20230280334A1, “CDC20 VARIANTS RESISTANT TO ANTI-MITOTIC DRUGS AND RELATED METHODS AND COMPOSITIONS” (Whitehead Institute for Biomedical Research, priority 2021, published 2023):
# Columns and labels:
# [1] = test system: HeLa cells; test: Time-lapse mitotic timing / mitotic arrest duration in HeLa cells; type: cell-based, human; conditions: for median arrest time / median mitotic arrest duration: HeLa; for median arrest time: 10 µM STLC (FIG. 6D); for median mitotic arrest duration: 10 µM STLC (FIG. 5E); for Mitotic time (min), HeLa: in the presence of 10 µM STLC with the indicated drug or RNAi treatment, mean ± standard deviation, two replicates
# Description: (§1) Mitotic arrest duration in the presence of 10 µM STLC for control HeLa compared to the ΔM1 and M1-stop mutant cell lines with the indicated drug or RNAi treatment (see FIGS. 3F, 9D). Indicated is the mean mitotic duration ± standard deviation across two experimental replicates. Statistics from Mann-Whitney Test (**** = p < 0.0001, NS = not significant).
# (§2) HeLa, hTERT-RPE1, U2OS, and A549 cell lines were cultured in Dulbecco’s modified Eagle medium (DMEM) supplemented with 10% fetal bovine serum (FBS), 100 U/mL penicillin and streptomycin, and 2 mM L-glutamine at 37° C. with 5% CO2. Doxycycline-inducible cell lines were cultured in medium containing FBS certified tetracycline free. Cas9 expression in inducible CRISPR/Cas9 cell lines was induced with 1 µg/ml doxycycline hyclate (##) at 24 hr interval for 2 days. Other drugs used on human cells were Nocodazole (##, 330 nM), S-trityl-L-cysteine (STLC, ##, 10 µM), Taxol (##, 1 µM), GSK923295 (CENP-E inhibitor, ##, 100 nM), proTAME (APC/Ci, ##, 12 µM), AZ-3146 (Mps1i, ##, 4 µM) unless concentration indicated otherwise in figure legend. Cells were enriched in mitosis with treatment with 330 nM nocodazole for 16-17 hrs. Cell lines were tested monthly for mycoplasma contamination.
# (§3) Cells were later moved to CO2-independent media (##) before imaging at 37° C. Phase contrast images were acquired on a Nikon eclipse microscope equipped with a charge-coupled device (CCD) camera (Clara, Andor) or a CMOS camera (##) using a Plan Fluor 20X/0.5 NA objective at either 5 min or 10 min intervals. Time-lapse movies were analyzed using Fiji (ImageJ, NIH), ilastik (##) and CellProfiler (##). Image brightness and contrast was adjusted in Fiji, pixel-based classification was performed on individual images using ilastik and the resulting probability map images were processed by CellProfiler to identify and track mitotic cells. Each mitotic cell was then confirmed manually and the mitotic duration was determined as the time from cell rounding at mitotic entry to cell flattening after mitotic exit.
# [2] = test system: ΔM1 mutant cell line (HeLa lacking the canonical M1 ATG start codon of CDC20); test: Time-lapse mitotic arrest duration in ΔM1 mutant cell line; type: cell-based, human; conditions: for Mitotic time (min), ΔM1: in the presence of 10 µM STLC with the indicated drug or RNAi treatment, mean ± standard deviation, two replicates; for mitotic arrest / mitotic exit behaviour in the presence of STLC: ΔM1 cells, 10 µM STLC alone or with the named agent
# Description: as §1, §2
# (§4) Stable clonal cell lines lacking the canonical full-length Cdc20 protein were obtained by transfecting HeLa cells with pX330-based plasmids [Cong 2013] expressing spCas9 and either the sgM1 (for ΔM1 mutant) or the sgExon1 guide RNA (for M1-stop mutant). pX330-based plasmids were transfected using Xtremegene-9 (##) together with a mCherry-expressing plasmid and mCherry-positive cells were fluorescence activated cell-sorted into 96 well plates with one cell per well. Clones were screened for successful gene editing and the CDC20 allele sequence information was determined by next-generation sequencing (Genewiz Amplicon-EZ).
# as §3
# [3] = test system: M1-stop mutant cell line (HeLa lacking full-length Cdc20); test: Time-lapse mitotic arrest duration in M1-stop mutant cell line; type: cell-based, human; conditions: for mitotic arrest / mitotic exit behaviour in the presence of STLC: M1-stop cells, 10 µM STLC alone or with the named agent; for Mitotic time (min), M1-stop: in the presence of 10 µM STLC with the indicated drug or RNAi treatment, mean ± standard deviation, two replicates
# Description: as §1, §2, §4, §3
# [4] = test system: U2OS cells; test: Time-lapse mitotic arrest duration in U2OS cells; type: cell-based, human; conditions: for median arrest time: U2OS, 10 µM STLC (FIG. 6D)
# Description: (§5) FIGS. 6A-6D show downstream in-frame Cdc20 translation initiation influences the mitotic slippage behavior of cancer cell lines. (FIG. 6A) Mitotic arrest duration of individual HeLa, U2OS, or A549 cells treated with 10 µM STLC alone or with a combination of STLC and siRNA treatment (either control siRNAs or Cdc20 siRNAs). Cells entering mitosis in the first 600 min (HeLa) or 700 min (U2OS/A549) of time lapse experiments were included in analyses. Open red circles indicate cells that exit mitosis. Closed black circles indicate cells that remained arrested in mitosis till the end of the time lapse. Blue circles indicate cells that die in mitosis. Bars correspond to median. Indicated are the median mitotic duration times across two experimental replicates. (FIG. 6B) Western blot of mitotically-enriched U2OS cells expressing endogenous Cdc20 protein or upon Cdc20 replacement with either wild-type CDC20 cDNA or a CDC20 M43L M88L mutant construct. Cells were enriched in mitosis with 10 µM STLC for 18 hrs. Cdc20 protein was detected using antibodies recognizing the human Cdc20 C-terminus (aa 450-499). β-actin was used as loading control. (FIG. 6C) Western blot similar to (B) for A549 cells except that ectopic constructs were induced with 50 ng/ml doxycycline. (FIG. 6D) Top, schematic illustrating the Cdc20 replacement strategy with siRNA-resistant 5′ UTR-CDC20 cDNA constructs from a doxycycline-inducible promoter combined with depletion of endogenous Cdc20 protein by siRNA treatment. Cells were treated with 10 ng/ml (HeLa/U2OS) or 50 ng/ml (A549) doxycycline. […]
# (§6) Cells were later moved to CO2-independent media (##) before imaging at 37° C. […] Time-lapse movies were analyzed using Fiji (ImageJ, NIH), ilastik (##) and CellProfiler (##). […] Each mitotic cell was then confirmed manually and the mitotic duration was determined as the time from cell rounding at mitotic entry to cell flattening after mitotic exit.
# [5] = test system: A549 cells; test: Time-lapse mitotic arrest duration in A549 cells; type: cell-based, human; conditions: for median arrest time: 10 µM STLC (FIG. 6D)
# Description: as §5, §6
# [6] = test system: HEC-6 cells; test: Mitotic arrest duration in HEC-6 cells; type: cell-based; conditions: 10 µM STLC (FIG. 14C)
# Text: (FIG. 14B) HEC-6 cells express reduced levels of full-length Cdc20 protein and thus higher relative levels of the alternative Cdc20 isoforms, compared to control HeLa cells.
# [7] = Cdc20 replacement with Cdc20 M43L M88L
# [8] = Cdc20 replacement with wild-type CDC20 construct
compound,measurement,setting,value
"N[C@@H](CSC(c1ccccc1)(c1ccccc1)c1ccccc1)C(=O)O [STLC, S-trityl-L-cysteine]",median arrest time,[1]; [7],2110 min
same,median arrest time,[1]; [8],1755 min
same,median mitotic arrest duration,[1]; endogenous Cdc20 replaced with altATGmutx2 mutant construct,1370 min
same,median mitotic arrest duration,[1]; endogenous Cdc20 replaced with wild-type siRNA-resistant CDC20 construct,1810 min
same,median mitotic arrest time,"[1]; STLC-treated HeLa, 10 µM STLC alone (FIG. 6A)",1645 min
same,time arrested in mitosis after mitotic entry,"[1]; control HeLa, 10 µM STLC, time-lapse (FIG. 3A)",> 10 h
same,"Mitotic time (min), HeLa",[1]; listed as STLC/DMSO,780±203 (n=103) min
same,"Mitotic time (min), HeLa",[1]; listed as STLC/siCtrl,805±168 (n=122) min
same,"Mitotic time (min), ΔM1",[2]; listed as STLC/DMSO,60±24 (n=97) min
same,"Mitotic time (min), ΔM1",[2]; listed as STLC/siCtrl,65±37 (n=88) min
same,mitotic arrest / mitotic exit behaviour in the presence of STLC,[2],exit mitosis within a few hours
same,mitotic arrest / mitotic exit behaviour in the presence of STLC,[3],exit mitosis within a few hours
same,"Mitotic time (min), M1-stop",[3]; listed as STLC/DMSO,67±12 (n=85) min
same,"Mitotic time (min), M1-stop",[3]; listed as STLC/siCtrl,70±18 (n=90) min
same,median mitotic arrest time,"[4]; STLC-treated U2OS, 10 µM STLC alone (FIG. 6A)",805 min
same,median arrest time,[4]; [7],1100 min
same,median arrest time,[4]; [8],690 min
same,median arrest time,"[5]; A549, Cdc20 replacement with Cdc20 M43L M88L",1140 min
same,median arrest time,"[5]; A549, Cdc20 replacement with wild-type CDC20 construct",920 min
same,median mitotic arrest time,"[5]; STLC-treated A549, 10 µM STLC alone (FIG. 6A)",780 min
same,mitotic arrest duration compared to control HeLa cells,[6],reduced mitotic arrest duration compared to control HeLa cells
COC(=O)[C@H](CCCN=C(NC(=O)OCOC(=O)Cc1ccccc1)NC(=O)OCOC(=O)Cc1ccccc1)NS(=O)(=O)c1ccc(C)cc1 [proTAME],mitotic arrest / mitotic exit behaviour in the presence of STLC,[2],suppressed the premature mitotic exit
same,mitotic arrest / mitotic exit behaviour in the presence of STLC,[3],suppressed the premature mitotic exit
AZ3146,mitotic arrest / mitotic exit behaviour in the presence of STLC,[2],not exacerbated further
same,mitotic arrest / mitotic exit behaviour in the presence of STLC,[3],further reduce the arrest
